Source: ChEMBL document CHEMBL3885881, “DrugMatrix”

Organism: Rattus norvegicus
Test: DrugMatrix - Regimen: Daily Repeat
Type: toxicity, organism-based, Sprague-Dawley
Design: regimen Daily Repeat, gender Male, age 6-8 weeks
Conditions: in vivo, po, route oral GAVAGE, vehicle 100 % WATER; for ABSOLUTE BASOPHIL / ABSOLUTE EOSINOPHIL / ABSOLUTE LYMPHOCYTE / ABSOLUTE MONOCYTE / ABSOLUTE SEGMENTED NEUTROPHIL / BASOPHIL / EOSINOPHIL / ERYTHROCYTE COUNT / HEMATOCRIT / HEMOGLOBIN / LEUKOCYTE COUNT / LYMPHOCYTE / MEAN CORPUSCULAR HEMOGLOBIN / MEAN CORPUSCULAR HEMOGLOBIN CONCENTRATION / MEAN CORPUSCULAR VOLUME / MONOCYTE / NEUTROPHIL / NUCLEATED RED BLOOD CELLS / PLATELET COUNT: tissue Blood; for ALANINE AMINOTRANSFERASE / ALBUMIN / ALKALINE PHOSPHATASE / ASPARTATE AMINOTRANSFERASE / BLOOD UREA NITROGEN / CARBON DIOXIDE / CHLORIDE / CHOLESTEROL / CREATINE PHOSPHOKINASE / CREATININE / GLUCOSE / LACTATE DEHYDROGENASE / LIPASE / PHOSPHORUS / POTASSIUM / SODIUM / TOTAL BILIRUBIN / TOTAL PROTEIN / URIC ACID: tissue Plasma
[1] = 2 mg/kg, 120 h, dose level Low, time 5 day
[2] = 184 mg/kg, 72 h, dose level High, time 3 day
[3] = 184 mg/kg, 120 h, dose level High, time 5 day

## C[C@]12C=CC(=O)C=C1CC[C@@H]1[C@@H]2[C@@H](O)C[C@@]2(C)[C@H]1CC[C@]2(O)C(=O)CO [PREDNISOLONE]
[1]
  ABSOLUTE BASOPHIL: 0 CELLS/uL
  ABSOLUTE EOSINOPHIL: 0 CELLS/uL
  ABSOLUTE LYMPHOCYTE: 11293 CELLS/uL
  ABSOLUTE MONOCYTE: 44.33 CELLS/uL
  ABSOLUTE SEGMENTED NEUTROPHIL: 929.33 CELLS/uL
  BASOPHIL: 0%
  EOSINOPHIL: 0%
  ERYTHROCYTE COUNT: 6.06 x10E6/uL
  HEMATOCRIT: 36.67%
  HEMOGLOBIN: 14.5 G/DL
  LEUKOCYTE COUNT: 12.27 x10E3/uL
  LYMPHOCYTE: 92.33%
  MEAN CORPUSCULAR HEMOGLOBIN: 23.9 pg
  MEAN CORPUSCULAR HEMOGLOBIN CONCENTRATION: 39.53 G/DL
  MEAN CORPUSCULAR VOLUME: 60.53 fL
  MONOCYTE: 0.33%
  NEUTROPHIL: 7.33%
  NUCLEATED RED BLOOD CELLS: 0.33 /100WBC
  PLATELET COUNT: 1186.33 x10E3/uL
  ALANINE AMINOTRANSFERASE: 41.33 u/L
  ALBUMIN: 4.37 G/DL
  ALKALINE PHOSPHATASE: 333.67 u/L
  ASPARTATE AMINOTRANSFERASE: 88.67 u/L
  BLOOD UREA NITROGEN: 16.33 mg/dL
  CARBON DIOXIDE: 26.67 mmol/L
  CHLORIDE: 101 MEQ/L
  CHOLESTEROL: 55.33 mg/dL
  CREATINE PHOSPHOKINASE: 433 u/L
  CREATININE: 0.17 mg/dL
  GLUCOSE: 143.33 mg/dL
  LACTATE DEHYDROGENASE: 390.33 u/L
  LIPASE: 9 u/L
  PHOSPHORUS: 10.87 mg/dL
  POTASSIUM: 5.88 MEQ/L
  SODIUM: 142.2 MEQ/L
  TOTAL BILIRUBIN: 0.23 mg/dL
  TOTAL PROTEIN: 6.1 G/DL
  URIC ACID: 1.87 mg/dL
[2]
  ABSOLUTE BASOPHIL: 0 CELLS/uL
  ABSOLUTE EOSINOPHIL: 0 CELLS/uL
  ABSOLUTE LYMPHOCYTE: 4216.33 CELLS/uL
  ABSOLUTE MONOCYTE: 85 CELLS/uL
  ABSOLUTE SEGMENTED NEUTROPHIL: 2332 CELLS/uL
  BASOPHIL: 0%
  EOSINOPHIL: 0%
  ERYTHROCYTE COUNT: 6.23 x10E6/uL
  HEMATOCRIT: 38.3%
  HEMOGLOBIN: 14.57 G/DL
  LEUKOCYTE COUNT: 6.63 x10E3/uL
  LYMPHOCYTE: 63.67%
  MEAN CORPUSCULAR HEMOGLOBIN: 23.4 pg
  MEAN CORPUSCULAR HEMOGLOBIN CONCENTRATION: 38.03 G/DL
  MEAN CORPUSCULAR VOLUME: 61.47 fL
  MONOCYTE: 1.33%
  NEUTROPHIL: 35%
  NUCLEATED RED BLOOD CELLS: 0 /100WBC
  PLATELET COUNT: 1200 x10E3/uL
  ALANINE AMINOTRANSFERASE: 57.33 u/L
  ALBUMIN: 5.07 G/DL
  ALKALINE PHOSPHATASE: 269.33 u/L
  ASPARTATE AMINOTRANSFERASE: 67 u/L
  BLOOD UREA NITROGEN: 18.67 mg/dL
  CARBON DIOXIDE: 25 mmol/L
  CHLORIDE: 99 MEQ/L
  CHOLESTEROL: 84.33 mg/dL
  CREATINE PHOSPHOKINASE: 258 u/L
  CREATININE: 0.22 mg/dL
  GLUCOSE: 170 mg/dL
  LACTATE DEHYDROGENASE: 120.33 u/L
  LIPASE: 12.33 u/L
  PHOSPHORUS: 11.57 mg/dL
  POTASSIUM: 5.92 MEQ/L
  SODIUM: 142.73 MEQ/L
  TOTAL BILIRUBIN: 0.17 mg/dL
  TOTAL PROTEIN: 7.07 G/DL
  URIC ACID: 2.57 mg/dL
[3]
  ABSOLUTE BASOPHIL: 0 CELLS/uL
  ABSOLUTE EOSINOPHIL: 20.33 CELLS/uL
  ABSOLUTE LYMPHOCYTE: 3939 CELLS/uL
  ABSOLUTE MONOCYTE: 40.67 CELLS/uL
  ABSOLUTE SEGMENTED NEUTROPHIL: 2333.33 CELLS/uL
  BASOPHIL: 0%
  EOSINOPHIL: 0.33%
  ERYTHROCYTE COUNT: 6.44 x10E6/uL
  HEMATOCRIT: 38.23%
  HEMOGLOBIN: 15.03 G/DL
  LEUKOCYTE COUNT: 6.33 x10E3/uL
  LYMPHOCYTE: 61.33%
  MEAN CORPUSCULAR HEMOGLOBIN: 23.4 pg
  MEAN CORPUSCULAR HEMOGLOBIN CONCENTRATION: 39.37 G/DL
  MEAN CORPUSCULAR VOLUME: 59.4 fL
  MONOCYTE: 0.67%
  NEUTROPHIL: 37.67%
  NUCLEATED RED BLOOD CELLS: 0.33 /100WBC
  PLATELET COUNT: 1142.33 x10E3/uL
  ALANINE AMINOTRANSFERASE: 78.33 u/L
  ALBUMIN: 5.07 G/DL
  ALKALINE PHOSPHATASE: 230.33 u/L
  ASPARTATE AMINOTRANSFERASE: 90.33 u/L
  BLOOD UREA NITROGEN: 18.67 mg/dL
  CARBON DIOXIDE: 23.33 mmol/L
  CHLORIDE: 100 MEQ/L
  CHOLESTEROL: 63.67 mg/dL
  CREATINE PHOSPHOKINASE: 788.33 u/L
  CREATININE: 0.21 mg/dL
  GLUCOSE: 184.67 mg/dL
  LACTATE DEHYDROGENASE: 177.67 u/L
  LIPASE: 11.67 u/L
  PHOSPHORUS: 10.9 mg/dL
  POTASSIUM: 5.41 MEQ/L
  SODIUM: 145.27 MEQ/L
  TOTAL BILIRUBIN: 0.23 mg/dL
  TOTAL PROTEIN: 6.93 G/DL
  URIC ACID: 1.27 mg/dL
